Reference: US20090137652A1, “METHODS FOR NEUROPROTECTION” (priority 2005, published 2009)
Values joined by “and” are separate entries in the source; they are usually repeats but may differ in a detail not shown here. Equal values may be shown once.

System: rats subjected to li-pilo SE
Assay: Quantification of cell densities 14 days after lithium-pilocarpine SE (Example 2)
Assay type: in vivo, rat
Details: 14 days after SE
Method: All rats received lithium chloride (3 meq/kg, i.p., Sigma, St Louis, Mo., U.S.A.) and about 20 h later, all animals received also methylscopolamine bromide (1 mg/kg, s.c., Sigma) that was administered to limit the peripheral effects of the convulsant. SE was induced by injecting pilocarpine hydrochloride (25 mg/kg, s.c., Sigma) 30 min after methylscopolamine. The effects of increasing doses of TC (RWJ) were studied in 5 groups of rats. […] The control group received vehicle instead of pilocarpine and TC.
At the moment, neuronal counting is still in progress in the second group of animals studied for epileptogenesis and long-term counting and the data concerning that part of the study will not be included in the present report. For neuronal counting, animals were deeply anesthetized with […] pentobarbital (Dolethal®, Vetoquinol, Lure, France). Brains were then removed and frozen. Serial 20 μm slices were cut in a cryostat, air-dried during several days before thionine staining. […] The grid of counting was placed on a well defined area of the cerebral structure of interest and counting was carried out with a microscopic enlargement of 200- or 400-fold defined for each single cerebral structure. Cell counts were performed twice on each side of three adjacent sections for each region by a single observer unaware of the animal's treatment. The number of cells obtained in the 12 counted fields in each cerebral structure was averaged. This procedure was used to minimize the potential errors that could result from double counting leading to overestimation of cell numbers. […] Counts involved only neurons with cell bodies larger than 10 μm. Cells with small cell bodies were considered as glial cells and were not counted.
For neuronal damage and epileptogenesis, statistical analysis between groups was performed by means of a one-way analysis of variance followed by a post-hoc Dunnett or Fisher test using the Statistica software.

[1] = DZP rats compared to control rats
[2] = DZP rats compared to control saline-treated rats
[3] = pilo-DZP (2.5 mg/kg i.m.), n = 7

SMILES: CN1C(=O)CN=C(c2ccccc2)c2cc(Cl)ccc21 [DZP, diazepam, reference compound]
- neurons surviving, all parts of the entorhinal cortex (DZP group): 27-81%
- neuronal damage, amygdala central nucleus [1]: no neuronal damage
- neuronal drop out, CA1 region of the hippocampus (pyramidal cell layer) [1]: 85%
- neuronal drop out, amygdala basolateral nucleus [1]: 73%
- neuronal drop out, amygdala medial dorsal anterior nucleus [1]: 53%
- neuronal drop out, thalamus central medial nucleus [1]: 34%
- neuronal drop out, thalamus dorsolateral medial dorsal nucleus [1]: 40%
- neuronal drop out, thalamus mediodorsal central nucleus [1]: 18%
- neuronal drop out, thalamus mediodorsal lateral nucleus [1]: 24%
- neuronal loss, CA3 region [1]: 40%
- neuronal loss, amygdala medial ventral posterior nucleus [1]: 38%
- neuronal loss, hilus of the dentate gyrus [1]: 65% and 66%
- neuronal loss, thalamus mediodorsal nucleus [1]: 49%
- neuronal loss, ventral lateral division of the dorsolateral thalamic nucleus [1]: 90%
- damage, dorsal entorhinal cortex layer II [2]: 18%
- damage, dorsal entorhinal cortex layers III-IV [2]: 24%
- damage, ventral entorhinal cortex layer II [2]: 22% and 19%
- damage, ventral entorhinal cortex layers III/IV [2]: 74% and 73%
- neuronal loss, piriform cortex dorsal layer II [2]: 66%
- neuronal loss, piriform cortex layer III [2]: 94%
- neuronal loss, piriform cortex ventral layer II [2]: 89%
- number of neuronal cell bodies, Amygdala, Basolateral [3]: 12.8 ± 5.3
- number of neuronal cell bodies, Amygdala, Medial, dorsal anterior [3]: 40.0 ± 2.5
- number of neuronal cell bodies, Amygdala, Medial, ventral posterior [3]: 21.8 ± 2.4
- number of neuronal cell bodies, Cerebral cortex, Entorhinal, layer II, dorsal [3]: 23.5 ± 0.7
- number of neuronal cell bodies, Cerebral cortex, Entorhinal, layer II, ventral [3]: 21.7 ± 1.3
- number of neuronal cell bodies, Cerebral cortex, Entorhinal, layer III/IV, dorsal [3]: 22.3 ± 0.5
- number of neuronal cell bodies, Cerebral cortex, Entorhinal, layer III/IV, ventral [3]: 7.7 ± 2.3
- number of neuronal cell bodies, Cerebral cortex, Piriform, layer II, dorsal [3]: 12.6 ± 4.2
- number of neuronal cell bodies, Cerebral cortex, Piriform, layer II, ventral [3]: 3.6 ± 0.7
- number of neuronal cell bodies, Cerebral cortex, Piriform, layer III [3]: 1.2 ± 1.2
- number of neuronal cell bodies, Hippocampus, CA1 area [3]: 10.9 ± 1.9
- number of neuronal cell bodies, Hippocampus, CA3 area [3]: 31.3 ± 2.9
- number of neuronal cell bodies, Hippocampus, Hilus [3]: 33.5 ± 3.0
- number of neuronal cell bodies, Thalamus, Central medial [3]: 74.2 ± 7.4
- number of neuronal cell bodies, Thalamus, Dorsolateral, medial, dorsal [3]: 61 ± 6.3
- number of neuronal cell bodies, Thalamus, Dorsolateral, ventral lateral [3]: 9.7 ± 2.5
- number of neuronal cell bodies, Thalamus, Mediodorsal central [3]: 26.3 ± 1.8
- number of neuronal cell bodies, Thalamus, Mediodorsal lateral [3]: 19.6 ± 0.8
- number of neuronal cell bodies, Thalamus, Mediodorsal medial [3]: 16.4 ± 1.9
